Reference: US20150105252A1, “SUBSTITUTED PYRAZOLES AS HERBICIDES” (E I DU PONT DE NEMOURS AND COMPANY, priority 2013, published 2015)

What was measured:
[1] = tested on: waterhemp_RES2 (ALS & HPPD resistant common waterhemp); assay: Test F postemergence; assay type: in vivo, Amaranthus rudis; details: scale 0 to 100
Method in brief: (§1)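 Visual rating 0–100 vs untreated controls (0 = no effect, 100 = complete control) after 14–21 d greenhouse. Pre: seeds in silt loam soil. Post: plants 2–18 cm, 1–4 leaf. Formulation: non-phytotoxic solvent mix + surfactant.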

common waterhemp = assay: Test F postemergence; assay type: in vivo, Amaranthus rudis; details: scale 0 to 100
Method in brief: as §1

[2] = tested on: waterhemp_RES1 (ALS & Triazine resistant common waterhemp); assay: Test F postemergence; assay type: in vivo, Amaranthus rudis; details: scale 0 to 100
Method in brief: as §1

horseweed = assay: Test F postemergence; assay type: in vivo, Conyza canadensis; details: scale 0 to 100
Text: (§2) Seeds of plant species selected from corn (Zea mays), soybean (Glycine max), velvetleaf (Abutilon theophrasti), lambsquarters (Chenopodium album), wild poinsettia (Euphorbia heterophylla), pigweed, palmer (palmer pigweed, Amaranthus palmeri), common waterhemp (Amaranthus rudis), surinam grass (Brachiaria decumbens), large crabgrass (Digitaria sanguinalis), crabgrass, Brazil (Brazilian crabgrass, Digitaria horizontalis), fall panicum (Panicum dichotomiflorum), giant foxtail (Setaria faberii), green foxtail (Setaria viridis), goosegrass (Eleusine indica), johnsongrass (Sorghum halepense), common ragweed (Ambrosia elation), barnyardgrass (Echinochloa crus-galli), southern sandbur (Cenchrus echinatus), arrowleaf sida (Sida rhombifolia), Italian ryegrass (Lolium multiflorum), dayflower, VA (Virginia (VA) dayflower, Commelina virginica), field bindweed (Convolvulus arvensis), cocklebur (common cocklebur, Xanthium strumarium), morningglory (Ipomoea coccinea), nightshade (eastern black nightshade, Solanum ptycanthum), kochia (Kochia scoparia), yellow nutsedge (Cyperus esculentus), and hairy beggarticks (Bidens pilosa), were planted into a silt loam soil and treated preemergence with test chemicals formulated in a non-phytotoxic solvent mixture which included a surfactant.
(§3) At the same time, plants from these crop and weed species and also horseweed (Canada horseweed, Conyza canadensis), smartweed (ladysthumb smartweed, Polygonum persicaria), waterhemp_RES1, (ALS & Triazine resistant common waterhemp, Amaranthus rudis), and waterhemp_RES2, (ALS & HPPD resistant common waterhemp, Amaranthus rudis) were treated with postemergence applications of test chemicals formulated in the same manner. Plants ranged in height from 2 to 18 cm for postemergence treatments (1- to 4-leaf stage). Treated plants and controls were maintained in a greenhouse for 14 to 21 days, after which time all species were compared to controls and visually evaluated. Plant response ratings, summarized in Table F, are based on a scale of 0 to 100 where 0 is no effect and 100 is complete control. A dash (-) response means no test result.

common chickweed = assay: Test E preemergence; assay type: in vivo, Stellaria media; details: 21 days, scale 0 to 100
Text: (§4) Seeds of plant species selected from bermudagrass (Cynodon dactylon), Surinam grass (Brachiaria decumbens), crabgrass, large (large crabgrass, Digitaria sanguinalis), crabgrass, naked (naked crabgrass, Digitaria nuda), foxtail, green (green foxtail, Setaria viridis), johnsongrass (Sorghum halepense), kochia (Kochia scoparia), morningglory (pitted morningglory, Ipomoea lacunosa), nutsedge, purple (purple nutsedge, Cyperus rotundus), ragweed (common ragweed, Ambrosia elation), mustard, black (black mustard, Brassica nigra), guineagrass (Panicum maximum), dallisgrass (Paspalum dilatatum), barnyardgrass (Echinochloa crus-galli), sandbur (southern sandbur, Cenchrus echinatus), sowthistle (common sowthistle, Sonchus oleraceous), ryegrass, Italian (Italian ryegrass, Lolium multiflorum), signalgrass (broadleaf signalgrass, Brachiaria platyphylla), dayflower, VA (Virginia (VA) dayflower, Commelina virginica), bluegrass (annual bluegrass, Poa annua), quackgrass (Elytrigia repens), mallow (common mallow, Malva sylvestris), buckwheat, wild (wild buckwheat, Polygonum convolvulus), leafy spurge (Euphorbia esula), common chickweed (Stellaria media), wild poinsettia (Euphorbia heterophylla), pigweed, palmer (palmer pigweed, Amaranthus palmeri), and pigweed (redroot pigweed, Amaranthus retroflexus) were planted into a blend of loam soil and sand and treated preemergence with test chemicals formulated in a non-phytotoxic solvent mixture which included a surfactant.
(§5) Treated plants and controls were maintained in a greenhouse for 21 days, after which time all species were compared to controls and visually evaluated. Plant response ratings, summarized in Table E, are based on a scale of 0 to 100 where 0 is no effect and 100 is complete control. A dash (-) response means no test result.

barnyardgrass = assay: Test F postemergence; assay type: in vivo, Echinochloa crus-galli; details: scale 0 to 100
Text: as §2, §3

quackgrass = assay: Test E preemergence; assay type: in vivo, Elytrigia repens; details: 21 days, scale 0 to 100
Text: as §4, §5

With `CCCc1cc(C(=O)NCC(F)(F)F)nn1Cc1ccnc(C(F)(F)F)c1` [Compound 105] the “Plant response rating, Waterhemp_RES2” value ([1]; Postemergence, 31 g ai/ha) was 60, the “Plant response rating, Waterhemp_RES2” value ([1]; Postemergence, 125 g ai/ha) was 75 and the “Plant response rating, Waterhemp_RES2” value ([1]; Postemergence, 250 g ai/ha) was 85. The “Plant response rating, Waterhemp_RES2” value ([1]; postemergence, 62 g ai/ha) was 70, the “Plant response rating, Waterhemp_RES2” value ([1]; postemergence, 500 g ai/ha) was 95 and the “Plant response rating, Common Waterhemp” value (common waterhemp; Postemergence, 31 g ai/ha) was 65. The “Plant response rating, Common Waterhemp” value (common waterhemp; Postemergence, 125 g ai/ha) was 65, the “Plant response rating, Common Waterhemp” value (common waterhemp; Postemergence, 250 g ai/ha) was 75 and the “Plant response rating, Common Waterhemp” value (common waterhemp; postemergence, 62 g ai/ha) was 60. For the same molecule, the “Plant response rating, Common Waterhemp” value (common waterhemp; postemergence, 500 g ai/ha) was 80, the “Plant response rating, Waterhemp_RES1” value ([2]; Postemergence, 31 g ai/ha) was 70 and the “Plant response rating, Waterhemp_RES1” value ([2]; Postemergence, 125 g ai/ha) was 75. The “Plant response rating, Waterhemp_RES1” value ([2]; Postemergence, 250 g ai/ha) was 90, the “Plant response rating, Waterhemp_RES1” value ([2]; postemergence, 62 g ai/ha) was 70 and the “Plant response rating, Waterhemp_RES1” value ([2]; postemergence, 500 g ai/ha) was 95. For the same molecule, the “Plant response rating, Horseweed” value (horseweed; Postemergence, 31 g ai/ha) was 20, the “Plant response rating, Horseweed” value (horseweed; Postemergence, 125 g ai/ha) was 35 and the “Plant response rating, Horseweed” value (horseweed; Postemergence, 250 g ai/ha) was 50. The “Plant response rating, Horseweed” value (horseweed; postemergence, 62 g ai/ha) was 25, the “Plant response rating, Horseweed” value (horseweed; postemergence, 500 g ai/ha) was 70 and the “Plant response rating, Common Chickweed” value (common chickweed; 16 g ai/ha) was 98. For the same molecule, the “Plant response rating, Common Chickweed” value (common chickweed; 31 g ai/ha) was 100, the “Plant response rating, Common Chickweed” value (common chickweed; 62 g ai/ha) was 100 and the “Plant response rating, Common Chickweed” value (common chickweed; 125 g ai/ha) was 100. For the same molecule, the “Plant response rating, Common Chickweed” value (common chickweed; 250 g ai/ha) was 100, the “Plant response rating, Barnyardgrass” value (barnyardgrass; Postemergence, 31 g ai/ha) was 10 and the “Plant response rating, Barnyardgrass” value (barnyardgrass; Postemergence, 125 g ai/ha) was 15. The “Plant response rating, Barnyardgrass” value (barnyardgrass; Postemergence, 250 g ai/ha) was 60, the “Plant response rating, Barnyardgrass” value (barnyardgrass; postemergence, 62 g ai/ha) was 5 and the “Plant response rating, Barnyardgrass” value (barnyardgrass; postemergence, 500 g ai/ha) was 90. For the same molecule, the “Plant response rating, Quackgrass” value (quackgrass; 16 g ai/ha) was 65, the “Plant response rating, Quackgrass” value (quackgrass; 31 g ai/ha) was 90 and the “Plant response rating, Quackgrass” value (quackgrass; 62 g ai/ha) was 98. The “Plant response rating, Quackgrass” value (quackgrass; 125 g ai/ha) was 100 and the “Plant response rating, Quackgrass” value (quackgrass; 250 g ai/ha) was 100.
